Source: patent publication US10952940B2, “Reagents and methods for mineralization of tooth enamel” (UNIVERSITY OF WASHINGTON, priority 2016, dated 2021)
“And” between values parts separate entries of the source, which are not always exact repeats. Identical values can stand only once. “Also recorded” adds a separate entry of the source. Where no end group is shown, it is not given here.

What was measured:
[1] = Mineralization in aqueous solution (kinetics)
Procedure: Fast kinetics refers to fast mineral formation, such as immediate mineral formation, while slow mineral formation refers to mineral formation over a period of time, such as about 5 minutes to about 1 hour. In some embodiments, a first biomineralizing peptide having faster kinetics can be used in combination with a second biomineralizing peptide having slower kinetics.
The ADP5 peptide was generated using a procedure that was developed for designing protein derived peptides as described previously. Briefly, 7-AA and 12-AA long hydroxyapatite binding peptides (HABPs) were experimentally selected using the c7c- and 12-phage libraries (New England BioLabs Inc., Ipswich, Mass., USA), respectively. Next, the 180 amino acid-long human amelogenin protein (rM180) was divided into 7-AA and 12-AA long segments and each segment was compared with all of the 155 experimentally selected HABPs. The regions with high similarity scores from 7-AA and 12-AA long segments were overlapped and those coinciding high similarity regions were chosen as the putative strong binding regions. These computationally determined high similarity regions were then refined to design the ADPs by protein structure prediction, Ca^2+ ion-binding domain predictions, and meta-functional signature analyses. […]

[2] = Solid binding affinity to HAp
Text: The ADP5 peptide was generated using a procedure that was developed for designing protein derived peptides as described previously. Briefly, 7-AA and 12-AA long hydroxyapatite binding peptides (HABPs) were experimentally selected using the c7c- and 12-phage libraries (New England BioLabs Inc., Ipswich, Mass., USA), respectively. Next, the 180 amino acid-long human amelogenin protein (rM180) was divided into 7-AA and 12-AA long segments and each segment was compared with all of the 155 experimentally selected HABPs. The regions with high similarity scores from 7-AA and 12-AA long segments were overlapped and those coinciding high similarity regions were chosen as the putative strong binding regions. These computationally determined high similarity regions were then refined to design the ADPs by protein structure prediction, Ca^2+ ion-binding domain predictions, and meta-functional signature analyses. Two separate assays were developed to characterize the ADPs: Solid binding affinity to HAp and mineralization in aqueous solution. […] Because of this property, ADP5 has been used for developing mineralization on human teeth. […] For this, we eliminated the six amino acids from the amino end and alanine from the carboxyl end, while keeping the charged amino acids intact that are thought to initiate mineralization. […]

[3] = Side-by-side comparison of peptide-mineralized whitening versus commercial whitening products; details: Image-J analysis of optical images; strip 30 mins, gel 10 minutes, peptide 0.8 mM 10 mins + artificial saliva 1 hr
Procedure: The whitening products were used according to the manufacturers' directions. For the strip, the product was applied to the pre-stained tooth for 30 mins and peeled off. Then the samples were rinsed with water for 1 min to clean the surface of the teeth from any residues from the strip. In the case of the second product, the gel was applied to the pre-stained teeth for 10 minutes and then cleaned by rinsing with water for 1 minute. In the peptide-remineralization case, the stained teeth were incubated with sADP5 (SEQ ID NO:24) peptide solution (0.8 mM) for 10 mins., followed by soaking in the artificial saliva (for 1 hr) that was supplemented with 4.8 mM Ca and 2.9 mM PO4 ionic concentrations.
The samples treated with whitening products or with the remineralization method were prepared for optical imaging for color change and also for surface characterization with scanning electron microscopy. The images of the teeth samples were recorded using a light optical microscopy technique under compact fluorescent light. The recorded images were digitized and examined with Image-J Line (NIH Software) for quantitative analysis of the color change (a, d, f and h). The cross-sectioned samples were prepared for SEM examination of the internal as well as surface structure of the teeth, and the results are shown in FIG. 15 (e, g, and i, plus their inset images).

[4] = 0.8 mM sADP5 10 minutes, then Ca/PO4 1 hour at 37° C.
Procedure: Extracted human teeth samples were collected from University of Washington clinics. The enamel tissue was cut out the using low speed saw on a perpendicular direction to the underlying dentin tubules. Next, the smear layer on the dentin was removed by polishing down to 0.1 um finish and etching for 10 seconds using 10% citric acid solution. For remineralization treatment, samples were soaked into 200 ul of 0.8 mM sADP5 peptide (SEQ ID NO:24) solution and incubated for 10 minutes at 37° C. Next, excess peptide was removed by blotting and the sample was soaked in 24 mM Tris Buffer solution supplemented with 4.8 mM Ca and 2.88 mM PO4 ions for 1 hour at 37° C. Following the remineralization treatment, samples were rinsed with deionized water, dried in air and characterized with scanning electron microscope

[5] = Layer-by-layer mineralization by peptide in solution on white spot lesion; parameters: species or system human; details: 0.8 mM sADP5
Procedure: On extracted human tooth, the entire tooth was painted with lacquer (nail polish) except a 3 mm by 3 mm window on enamel. This window was subjected to etching then remineralization. The following steps were then carried out:
• 1. Etch enamel surface aqueous solution of 2.2 mM K2HPO4, 2.2 mM CaCl2, and 50 mM acetic acid at pH 4.5 for 2 weeks, changing solution every other day, to create white spot lesion (WSL) […]. • 2. Soak in 100 ml of 0.8 mM sADP5 solution at 37 C for 10 minutes then blot dry with tissue paper. • 3. Soak in 600 ml of 4.8 mM CaCl2+2.8 mM K2HPO4 in pH 7.4 Tris buffer at 37 C for 1 hour. • 4. Drip rinse with DI water for 20 seconds then blot dry with Kimwipe™ sheet. • 5. Repeat steps 3-4 to add more mineralized layers. Results & Discussions—

Substance	mineralization kinetics [1]	binding to HAp [2]	increase of tooth shade above tea-stained baseline [3]	depth of mineral penetration into tubules [4]	occlusion of exposed dentin tubules [4]	Ca/P of new mineral layers ([5]; after 4 repetitions)	number of distinctive mineral layers formed ([5]; after 4 repetitions of the mineralization steps)
(HPP(S/T)HTLQPHHH(L/I)PVVPAQQPV(A/I)PQQPMMPVPG(H/Q)HSMTP(T/I)QH)1-10 [ADP7]	slow kinetic profile	–	–	–	–	–	–
(PGYIN(L/F)SYE(K/N)SHSQAIN(T/V)DRTA)1-10 [ADP5]	fastest mineralization kinetics; also recorded: fast kinetic profile	one of the weakest binding peptides	–	–	–	–	–
(SYEKSHSQAINTDRT)1-10 (also: repeated 1-10 times) [sADP5]	–	–	4.64% and 4.6%	2-3 um	successfully occluded	1.43+0.15	4
